Assay results: ChEMBL document CHEMBL1150886, “Cytotoxic compounds from the roots of Juglans mandshurica” (J Nat Prod, 1998)
Values after ≈ are worked out from the molar mass of the structure shown.

Key:
HT-29 = assay: Cytotoxicity against human HT-29 cells by MTT assay; type: functional, cell-based
A549 = assay: Cytotoxicity against human A549 cells by MTT assay; type: functional, cell-based

| SMILES | IC50 (HT-29) [µg/mL] | IC50 (A549) [µg/mL] |
| --- | --- | --- |
| COC(=O)c1cc(O[C@H]2O[C@@H](CO)[C@H](O)[C@@H](O)[C@@H]2O)c2c(O)cccc2c1O | 8.06 (≈ 20.3 µM) | 7.79 (≈ 19.7 µM) |
| COC1=CC(=O)c2c(O)cccc2C1=O | 2.63 (≈ 12.9 µM) | 0.08 (≈ 0.392 µM) |
| COc1cc2ccc1Oc1cc(ccc1O)CC(O[C@@H]1O[C@H](CO)[C@@H](O)[C@H](O)[C@H]1O)C(=O)CCCC2 (some centres undefined) | > 50 | > 50 |
| COC(=O)C(O)(c1cc2c(c3oc([C@]4(C)C[C@@H]4C)cc(=O)c13)C(=O)c1c(ccc([C@H]3C[C@](C)(N(C)C)[C@H](O[C@@H]4C[C@H](OC)[C@H](O)[C@@H](C)O4)[C@H](C)O3)c1O)C2=O)[C@H]1O[C@H](C)[C@@H](O)[C@@H](OC)[C@@H]1O (some centres undefined) [ALTROMYCIN B] | 3.98 (≈ 4.31 µM) | – |
| COc1cc(C(=O)OC[C@H]2O[C@@H](Oc3ccc(O)c4c3C(O)CCC4=O)[C@H](O)[C@@H](O)[C@@H]2O)cc(OC)c1O (some centres undefined) | > 50 | > 50 |
